Measured values from patent US9340590B2 (priority 2011, dated 2016).
Positions of bridges follow the written chain, without caps; N, C: chain ends. Residues, ends and D or L forms follow the SMILES beside them.

molecular target: hNav1.3 (Homo sapiens, UniProt Q9NY46); test: cell-based; conditions: IonWorks Quattro, use-dependent block, hNav1.3; read-out: IWQ Use Nav1.3
Sequence (Q9NY46 whole entry, looked up): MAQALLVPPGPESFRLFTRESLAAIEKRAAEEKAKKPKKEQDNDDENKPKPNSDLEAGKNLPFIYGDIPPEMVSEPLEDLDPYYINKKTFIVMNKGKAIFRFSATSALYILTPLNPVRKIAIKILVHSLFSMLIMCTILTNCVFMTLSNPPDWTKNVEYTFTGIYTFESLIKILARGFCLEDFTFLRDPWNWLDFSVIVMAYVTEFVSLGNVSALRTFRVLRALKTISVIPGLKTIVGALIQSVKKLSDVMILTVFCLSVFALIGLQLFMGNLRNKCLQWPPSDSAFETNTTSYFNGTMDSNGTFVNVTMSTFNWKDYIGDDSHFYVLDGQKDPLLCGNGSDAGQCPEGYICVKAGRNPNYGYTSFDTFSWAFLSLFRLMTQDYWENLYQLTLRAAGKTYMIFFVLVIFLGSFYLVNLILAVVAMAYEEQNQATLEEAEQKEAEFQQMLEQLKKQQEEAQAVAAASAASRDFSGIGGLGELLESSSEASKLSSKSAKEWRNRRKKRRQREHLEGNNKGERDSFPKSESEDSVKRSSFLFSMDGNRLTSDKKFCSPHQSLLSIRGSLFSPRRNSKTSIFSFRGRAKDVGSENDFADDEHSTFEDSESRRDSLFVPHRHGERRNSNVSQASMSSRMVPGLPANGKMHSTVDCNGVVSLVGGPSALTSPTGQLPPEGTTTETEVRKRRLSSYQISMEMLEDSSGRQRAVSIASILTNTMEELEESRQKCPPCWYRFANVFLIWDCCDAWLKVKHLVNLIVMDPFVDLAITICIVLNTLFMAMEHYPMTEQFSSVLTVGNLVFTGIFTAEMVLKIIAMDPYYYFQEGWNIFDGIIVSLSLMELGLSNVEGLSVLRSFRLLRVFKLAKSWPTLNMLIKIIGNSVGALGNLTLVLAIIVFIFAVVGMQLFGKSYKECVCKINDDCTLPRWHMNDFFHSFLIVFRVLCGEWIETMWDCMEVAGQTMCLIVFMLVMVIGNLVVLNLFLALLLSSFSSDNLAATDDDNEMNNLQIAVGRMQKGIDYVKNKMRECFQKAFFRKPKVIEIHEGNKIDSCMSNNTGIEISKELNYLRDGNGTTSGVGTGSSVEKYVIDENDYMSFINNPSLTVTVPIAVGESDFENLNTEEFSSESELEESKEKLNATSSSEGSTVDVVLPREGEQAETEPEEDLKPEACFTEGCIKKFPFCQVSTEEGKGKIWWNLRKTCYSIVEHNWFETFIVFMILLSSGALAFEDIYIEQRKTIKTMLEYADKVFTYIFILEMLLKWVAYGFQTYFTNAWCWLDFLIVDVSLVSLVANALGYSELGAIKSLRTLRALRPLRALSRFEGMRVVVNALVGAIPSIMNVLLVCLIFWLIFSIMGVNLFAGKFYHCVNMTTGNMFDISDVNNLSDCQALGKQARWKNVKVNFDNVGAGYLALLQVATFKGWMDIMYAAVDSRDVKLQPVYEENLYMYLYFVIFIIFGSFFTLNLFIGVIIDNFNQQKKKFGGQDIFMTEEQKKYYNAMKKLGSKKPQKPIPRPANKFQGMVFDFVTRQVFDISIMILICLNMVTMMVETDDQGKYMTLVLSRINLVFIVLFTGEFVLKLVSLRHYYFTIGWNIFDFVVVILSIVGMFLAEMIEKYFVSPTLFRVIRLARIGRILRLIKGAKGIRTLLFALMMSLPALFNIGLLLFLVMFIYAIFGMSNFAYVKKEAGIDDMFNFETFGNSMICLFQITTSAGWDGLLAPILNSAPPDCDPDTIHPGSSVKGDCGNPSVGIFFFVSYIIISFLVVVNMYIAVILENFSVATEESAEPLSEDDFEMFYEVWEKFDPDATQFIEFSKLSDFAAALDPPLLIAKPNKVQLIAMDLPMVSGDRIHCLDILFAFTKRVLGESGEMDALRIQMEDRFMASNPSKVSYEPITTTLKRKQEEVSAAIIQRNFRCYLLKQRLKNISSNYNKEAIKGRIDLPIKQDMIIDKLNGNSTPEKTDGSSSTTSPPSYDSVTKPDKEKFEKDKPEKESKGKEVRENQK

Question: How did the IC50 turn out when `CC[C@H](C)[C@@H]1NC(=O)[C@@H]2CSSC[C@@H]3NC(=O)[C@H](C(C)C)NC(=O)[C@H](CC(C)C)NC(=O)[C@H](CC(N)=O)NC(=O)[C@@H]4CCCN4C(=O)[C@H](CCCNC(=N)N)NC(=O)[C@H](CSSC[C@H](NC(=O)[C@@H](N)CC(=O)O)C(=O)N[C@@H](CC(C)C)C(=O)NCC(=O)N[C@@H](C)C(=O)N[C@@H](Cc4ccccc4)C(=O)N[C@@H](CCCNC(=N)N)C(=O)N[C@@H](CCCCN)C(=O)N2)NC(=O)[C@H](CSSC[C@@H](C(=O)N[C@@H](CCCCN)C(=O)N[C@@H](Cc2ccc(O)cc2)C(=O)N[C@H](C(=O)N[C@@H](Cc2ccccc2)C(N)=O)C(C)C)NC(=O)[C@H](Cc2c[nH]c4ccccc24)NC(=O)[C@H](CCCNC(=N)N)NC(=O)[C@H](Cc2cnc[nH]2)NC(=O)[C@H]([C@@H](C)O)NC(=O)[C@H](CCCNC(=N)N)NC(=O)[C@H](CO)NC3=O)NC(=O)[C@H](CCCCN)NC(=O)[C@H](CC(=O)O)NC(=O)[C@H](CC(N)=O)NC(=O)[C@H](CC(=O)O)NC(=O)[C@@H]2CCCN2C1=O` [compound 809] (H-DCLGAFRKCIPDNDKCCRPNLVCSRTHRWCKYVF-NH2; disulfide 2-17, 9-23, 16-30) was run?
Answer: Its IC50 is 300 nM.

Question: `CC[C@H](C)[C@@H]1NC(=O)[C@@H]2CSSC[C@@H]3NC(=O)[C@H](C(C)C)NC(=O)[C@H](CC(C)C)NC(=O)[C@H](CC(N)=O)NC(=O)[C@@H]4CCCN4C(=O)[C@H](CCCNC(=N)N)NC(=O)[C@H](CSSC[C@H](NC(=O)[C@@H](N)CC(=O)O)C(=O)N[C@@H](CC(C)C)C(=O)NCC(=O)N[C@@H](C)C(=O)N[C@@H](CC(C)C)C(=O)N[C@@H](CCCNC(=N)N)C(=O)N[C@@H](CCCCN)C(=O)N2)NC(=O)[C@H](CSSC[C@@H](C(=O)N[C@@H](CCCCN)C(=O)N[C@@H](Cc2ccc(O)cc2)C(=O)N[C@H](C(=O)N[C@@H](Cc2ccccc2)C(N)=O)C(C)C)NC(=O)[C@H](Cc2c[nH]c4ccccc24)NC(=O)[C@H](CCCNC(=N)N)NC(=O)[C@H](Cc2cnc[nH]2)NC(=O)[C@H]([C@@H](C)O)NC(=O)[C@H](CCCNC(=N)N)NC(=O)[C@H](CO)NC3=O)NC(=O)[C@H](CCCCN)NC(=O)[C@H](CC(=O)O)NC(=O)[C@H](CC(N)=O)NC(=O)[C@H](CC(=O)O)NC(=O)[C@@H]2CCCN2C1=O` [compound 810] (H-DCLGALRKCIPDNDKCCRPNLVCSRTHRWCKYVF-NH2; disulfide 2-17, 9-23, 16-30) was tested. Which IC50 did it give?
Answer: Its IC50 is 200 nM.

molecular target: hNav1.7 (Homo sapiens, UniProt Q15858); test: cell-based; assay type: cell-based; conditions: IonWorks Quattro; clamped to −110 mV, depolarized to −10 mV, 5 min after compound; n=2; read-out: IWQ Use Nav1.7
Sequence (Q15858 whole entry, looked up): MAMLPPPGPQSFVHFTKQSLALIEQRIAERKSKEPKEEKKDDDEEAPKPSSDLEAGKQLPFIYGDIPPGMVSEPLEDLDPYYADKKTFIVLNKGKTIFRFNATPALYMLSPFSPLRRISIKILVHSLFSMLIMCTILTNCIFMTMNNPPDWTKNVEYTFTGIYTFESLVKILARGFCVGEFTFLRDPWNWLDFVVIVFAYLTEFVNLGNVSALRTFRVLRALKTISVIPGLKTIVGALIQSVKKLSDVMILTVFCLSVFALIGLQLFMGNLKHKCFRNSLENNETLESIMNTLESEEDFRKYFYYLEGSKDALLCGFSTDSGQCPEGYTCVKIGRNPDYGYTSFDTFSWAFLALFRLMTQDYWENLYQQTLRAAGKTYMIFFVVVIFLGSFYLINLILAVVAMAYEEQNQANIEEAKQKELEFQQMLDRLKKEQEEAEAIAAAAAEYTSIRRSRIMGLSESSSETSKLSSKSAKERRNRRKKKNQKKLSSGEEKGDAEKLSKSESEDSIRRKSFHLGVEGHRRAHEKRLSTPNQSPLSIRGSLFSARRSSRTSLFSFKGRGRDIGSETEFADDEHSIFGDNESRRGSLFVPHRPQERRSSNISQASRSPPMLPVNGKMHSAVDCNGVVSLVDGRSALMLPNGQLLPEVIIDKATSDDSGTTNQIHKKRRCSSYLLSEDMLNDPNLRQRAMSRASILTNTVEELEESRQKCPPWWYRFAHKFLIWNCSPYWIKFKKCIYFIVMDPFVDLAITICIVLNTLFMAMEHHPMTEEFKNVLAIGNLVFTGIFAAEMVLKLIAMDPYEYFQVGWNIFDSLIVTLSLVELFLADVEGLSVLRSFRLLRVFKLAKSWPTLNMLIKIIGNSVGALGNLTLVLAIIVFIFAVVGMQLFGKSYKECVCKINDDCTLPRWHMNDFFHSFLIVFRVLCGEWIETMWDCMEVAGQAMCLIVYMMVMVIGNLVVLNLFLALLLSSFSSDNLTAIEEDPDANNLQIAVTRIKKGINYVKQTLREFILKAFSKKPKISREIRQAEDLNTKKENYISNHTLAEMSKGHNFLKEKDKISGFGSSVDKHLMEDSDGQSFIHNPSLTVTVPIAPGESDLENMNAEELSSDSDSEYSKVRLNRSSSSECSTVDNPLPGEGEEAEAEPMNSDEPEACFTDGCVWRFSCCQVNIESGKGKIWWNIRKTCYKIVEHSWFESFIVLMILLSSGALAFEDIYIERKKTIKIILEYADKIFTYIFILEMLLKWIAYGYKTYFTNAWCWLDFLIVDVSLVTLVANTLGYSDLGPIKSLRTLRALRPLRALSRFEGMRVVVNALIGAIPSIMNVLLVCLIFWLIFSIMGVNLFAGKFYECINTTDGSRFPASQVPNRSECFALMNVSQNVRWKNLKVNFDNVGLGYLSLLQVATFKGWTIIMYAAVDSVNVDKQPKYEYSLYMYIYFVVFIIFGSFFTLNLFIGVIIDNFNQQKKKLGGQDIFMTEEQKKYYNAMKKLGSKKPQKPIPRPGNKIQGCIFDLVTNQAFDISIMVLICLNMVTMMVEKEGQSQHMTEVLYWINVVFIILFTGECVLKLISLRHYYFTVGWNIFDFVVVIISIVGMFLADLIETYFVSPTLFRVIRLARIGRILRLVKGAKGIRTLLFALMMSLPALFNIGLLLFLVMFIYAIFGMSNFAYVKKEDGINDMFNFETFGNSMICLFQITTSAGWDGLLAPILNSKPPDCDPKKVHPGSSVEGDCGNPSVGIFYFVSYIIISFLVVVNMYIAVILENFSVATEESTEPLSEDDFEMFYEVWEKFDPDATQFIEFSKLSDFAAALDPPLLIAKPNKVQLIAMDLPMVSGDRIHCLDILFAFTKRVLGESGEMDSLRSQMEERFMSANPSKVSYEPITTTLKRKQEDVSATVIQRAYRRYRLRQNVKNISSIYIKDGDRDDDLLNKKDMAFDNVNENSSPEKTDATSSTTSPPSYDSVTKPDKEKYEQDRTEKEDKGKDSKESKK

Question: How did the IC50 turn out when `CC[C@H](C)[C@@H]1NC(=O)[C@@H]2CSSC[C@@H]3NC(=O)[C@H](C(C)C)NC(=O)[C@H](CC(C)C)NC(=O)[C@H](CC(N)=O)NC(=O)[C@@H]4CCCN4C(=O)[C@H](CCCNC(=N)N)NC(=O)[C@H](CSSC[C@H](NC(=O)[C@@H](N)CCC(=O)O)C(=O)N[C@@H](CC(C)C)C(=O)NCC(=O)N[C@@H](Cc4ccccc4)C(=O)N[C@@H](CCSC)C(=O)N[C@@H](CCCNC(=N)N)C(=O)N[C@@H](CCCCN)C(=O)N2)NC(=O)[C@H](CSSC[C@@H](C(=O)N[C@@H](CCCCN)C(=O)N[C@@H](Cc2ccc(O)cc2)C(=O)N[C@H](C(=O)N[C@@H](Cc2ccccc2)C(N)=O)C(C)C)NC(=O)[C@H](Cc2c[nH]c4ccccc24)NC(=O)[C@H](CCCCN)NC(=O)[C@H](Cc2c[nH]cn2)NC(=O)[C@H]([C@@H](C)O)NC(=O)[C@H](CCCNC(=N)N)NC(=O)[C@H](CO)NC3=O)NC(=O)[C@H](CCCCN)NC(=O)[C@H](CC(=O)O)NC(=O)[C@H](CC(N)=O)NC(=O)[C@H](CC(=O)O)NC(=O)[C@@H]2CCCN2C1=O` [SEQ ID NO: 18] (H-ECLGFMRKCIPDNDKCCRPNLVCSRTHKWCKYVF-NH2; disulfide 2-17, 9-23, 16-30) was run?
Answer: Its IC50 is 220 nM.

Question: With `CC[C@H](C)[C@@H]1NC(=O)[C@@H]2CSSC[C@@H]3NC(=O)[C@H](C(C)C)NC(=O)[C@H](CC(C)C)NC(=O)[C@H](CC(N)=O)NC(=O)[C@@H]4CCCN4C(=O)[C@H](CCCNC(=N)N)NC(=O)[C@H](CSSC[C@H](NC(=O)[C@@H](N)CC(=O)O)C(=O)N[C@@H](CCC(=O)O)C(=O)NCC(=O)N[C@@H](Cc4ccccc4)C(=O)N[C@@H](CCSC)C(=O)N[C@@H](CCCNC(=N)N)C(=O)N[C@@H](CCCCN)C(=O)N2)NC(=O)[C@H](CSSC[C@@H](C(=O)N[C@@H](CCCCN)C(=O)N[C@@H](Cc2ccc(O)cc2)C(=O)N[C@H](C(=O)N[C@@H](Cc2ccccc2)C(N)=O)C(C)C)NC(=O)[C@H](Cc2c[nH]c4ccccc24)NC(=O)[C@H](CCCCN)NC(=O)[C@H](Cc2c[nH]cn2)NC(=O)[C@H]([C@@H](C)O)NC(=O)[C@H](CCCNC(=N)N)NC(=O)[C@H](CO)NC3=O)NC(=O)[C@H](CCCCN)NC(=O)[C@H](CC(=O)O)NC(=O)[C@H](CC(N)=O)NC(=O)[C@H](CC(=O)O)NC(=O)[C@@H]2CCCN2C1=O` [SEQ ID NO: 19] (H-DCEGFMRKCIPDNDKCCRPNLVCSRTHKWCKYVF-NH2; disulfide 2-17, 9-23, 16-30) as the compound, how does the IC50 read?
Answer: The IC50 was 670 nM.

Question: How did the IC50 turn out when `CC[C@H](C)[C@@H]1NC(=O)[C@@H]2CSSC[C@@H]3NC(=O)[C@H](C(C)C)NC(=O)[C@H](CC(C)C)NC(=O)[C@H](CC(N)=O)NC(=O)[C@@H]4CCCN4C(=O)[C@H](CCCNC(=N)N)NC(=O)[C@H](CSSC[C@H](NC(=O)[C@H](C)N)C(=O)N[C@@H](CC(C)C)C(=O)NCC(=O)N[C@@H](Cc4ccccc4)C(=O)N[C@@H](CCSC)C(=O)N[C@@H](CCCNC(=N)N)C(=O)N[C@@H](CCCCN)C(=O)N2)NC(=O)[C@H](CSSC[C@@H](C(=O)N[C@@H](CCCCN)C(=O)N[C@@H](Cc2ccc(O)cc2)C(=O)N[C@H](C(=O)N[C@@H](Cc2ccccc2)C(N)=O)C(C)C)NC(=O)[C@H](Cc2c[nH]c4ccccc24)NC(=O)[C@H](CCCCN)NC(=O)[C@H](Cc2c[nH]cn2)NC(=O)[C@H]([C@@H](C)O)NC(=O)[C@H](CCCNC(=N)N)NC(=O)[C@H](CO)NC3=O)NC(=O)[C@H](CCCCN)NC(=O)[C@H](CC(=O)O)NC(=O)[C@H](CC(N)=O)NC(=O)[C@H](CC(=O)O)NC(=O)[C@@H]2CCCN2C1=O` [SEQ ID NO: 20] (H-ACLGFMRKCIPDNDKCCRPNLVCSRTHKWCKYVF-NH2; disulfide 2-17, 9-23, 16-30) was run?
Answer: Its IC50 is 100 nM.

Question: How did the IC50 turn out when `CC[C@H](C)[C@@H]1NC(=O)[C@@H]2CSSC[C@@H]3NC(=O)[C@H](C(C)C)NC(=O)[C@H](CC(C)C)NC(=O)[C@H](CC(N)=O)NC(=O)[C@@H]4CCCN4C(=O)[C@H](CCCNC(=N)N)NC(=O)[C@H](CSSC[C@H](NC(=O)[C@@H](N)CC(=O)O)C(=O)N[C@@H](CC(C)C)C(=O)N[C@@H](CCC(=O)O)C(=O)N[C@@H](Cc4ccccc4)C(=O)N[C@@H](CCSC)C(=O)N[C@@H](CCCNC(=N)N)C(=O)N[C@@H](CCCCN)C(=O)N2)NC(=O)[C@H](CSSC[C@@H](C(=O)N[C@@H](CCCCN)C(=O)N[C@@H](Cc2ccc(O)cc2)C(=O)N[C@H](C(=O)N[C@@H](Cc2ccccc2)C(N)=O)C(C)C)NC(=O)[C@H](Cc2c[nH]c4ccccc24)NC(=O)[C@H](CCCCN)NC(=O)[C@H](Cc2c[nH]cn2)NC(=O)[C@H]([C@@H](C)O)NC(=O)[C@H](CCCNC(=N)N)NC(=O)[C@H](CO)NC3=O)NC(=O)[C@H](CCCCN)NC(=O)[C@H](CC(=O)O)NC(=O)[C@H](CC(N)=O)NC(=O)[C@H](CC(=O)O)NC(=O)[C@@H]2CCCN2C1=O` [SEQ ID NO: 24] (H-DCLEFMRKCIPDNDKCCRPNLVCSRTHKWCKYVF-NH2; disulfide 2-17, 9-23, 16-30) was run?
Answer: Its IC50 is 1740 nM.
